{
  "source": "ChEMBL document CHEMBL6071172",
  "about": "“Addressing the Intracellular Vestibule of the Plasmodial Lactate Transporter PfFNT by p-Substituted Inhibitors Amplifies In Vitro Activity” (J Med Chem, 2024)",
  "key": {"[1]": {"assay": "Binding affinity to C-terminal GFP tagged Plasmodium falciparum FNT extracted from HEK293 cell membrane assessed as inhibition constant measured 10 times for 5 sec in presence of BH267.meta-DY647 tracer by fluorescence cross-correlation spectroscopic analysis", "type": "cell membranes"}, "[2]": {"assay": "Inhibition of Plasmodium falciparum FNT extracted from Saccharomyces cerevisiae W303-1A jen1 delta ady2 delta assessed as reduction in [1-14C]-L-lactate uptake preincubated for 20 mins followed by substrate addition by TriCrab liquid scintillation counter"}, "[3]": {"system": "Plasmodium falciparum", "assay": "Antiplasmodial activity against Plasmodium falciparum 3D7 infected in erythrocytes assessed as inhibition of parasite growth at 50 nM incubated for 48 hrs with media replenishment with compound after 24 hrs by LSR II FACS analysis relative to control", "type": "functional", "conditions": "3D7, Erythrocyte"}, "[4]": {"system": "HEK293", "assay": "Cytotoxicity against HEK293 cells assessed as change in ATP level upto 100 uM by CellTiter-Glo assay", "type": "toxicity, cell-based", "conditions": "human, hek293, 100 µM"}, "[5]": {"system": "HEK293", "assay": "Cytotoxicity against HEK293 cells assessed as change in redox capability of cytosol upto 100 uM by resazurin dye based fluorescence microplate reader", "type": "toxicity, cell-based", "conditions": "human"}, "[6]": {"system": "HepG2", "assay": "Cytotoxicity against human HepG2 cells assessed as change in ATP level upto 100 uM by CellTiter-Glo assay", "type": "toxicity, cell-based", "conditions": "hepg2, 100 µM"}, "[7]": {"system": "HEK293", "assay": "Cytotoxicity against HEK293 cells assessed as reduction in nuclei count at >10 uM by Hoechst 33342 staining based microscopic analysis", "type": "toxicity, cell-based", "conditions": "human, hek293, 10 µM"}, "[8]": {"system": "HepG2", "assay": "Cytotoxicity against human HepG2 cells assessed as change in redox capability of cytosol upto 100 uM by CellTiter-Glo assay", "type": "toxicity, cell-based"}, "[9]": {"system": "HepG2", "assay": "Cytotoxicity against human HepG2 cells assessed as reduction in nuclei count at >10 uM by Hoechst 33342 staining based microscopic analysis", "type": "toxicity, cell-based", "conditions": "hepg2, 10 µM"}, "[10]": {"system": "Plasmodium falciparum", "assay": "Antiplasmodial activity against Plasmodium falciparum 3D7 infected in SCID mouse model assessed as decrease in parasite load at 150 mg/kg/day, po administered for 4 days", "type": "functional, organism-based", "conditions": "time 4.0 day"}, "[11]": {"assay": "Drug concentration in blood of SCID mouse model infected with plasmodium falciparum 3D7 at 50 mg/kg/day, po administered for 4 days", "type": "ADME, organism-based", "conditions": "time 4 day, read-out: Ct"}, "[12]": {"assay": "Half-life in SCID mouse model infected with plasmodium falciparum 3D7 at 50 mg/kg/day, po administered for 4 days", "type": "ADME, organism-based", "conditions": "in vivo, time 4 day"}, "[13]": {"assay": "Metabolic stability in pooled human liver microsomes assessed as intrinsic clearance at 1 uM by LC-MS/MS analysis", "type": "ADME, Microsome", "conditions": "read-out: CLH"}, "[14]": {"system": "Plasmodium berghei", "assay": "Antiplasmodial activity against Plasmodium berghei ANKA infected in malarial mouse model assessed as elimination of parasitemia at 3 to 30 mg/kg/day, po administered for 4 days by flow cytometric analysis relative to control", "type": "functional", "conditions": "dose 3-30 mg/kg/day, time 4 day"}, "[15]": {"system": "Plasmodium falciparum", "assay": "Antiplasmodial activity against Plasmodium falciparum 3D7 infected in erythrocytes incubated for 48 hrs with media replenishment with compound after 24 hrs by LSR II FACS analysis", "type": "functional, organism-based", "conditions": "3D7, Erythrocyte"}, "[16]": {"assay": "Dissociation constant, pKa of compound", "type": "physicochemical"}},
  "note": "The source made the active and inactive calls. No cut-off for these calls is given here.",
  "data": [
    {"smiles": "COc1ccc(C(=O)/C=C(\\O)C(F)(F)C(F)(F)F)c(O)c1", "values": [
      {"measurement": "Ki", "setting": "[1]", "result": 83, "unit": "nM"},
      {"measurement": "IC50", "setting": "[2]", "result": 170, "unit": "nM"},
      {"measurement": "inhibition at 0.05 µM", "setting": "[3]", "result": "< 10", "unit": "%"}
    ]},
    {"smiles": "CCCNc1ccc(C(=O)/C=C(\\O)C(F)(F)C(F)(F)F)cn1", "values": [
      {"measurement": "Activity", "setting": "[4]", "result": "Non-Toxic"},
      {"measurement": "Activity", "setting": "[5]", "result": "Non-Toxic"},
      {"measurement": "Activity", "setting": "[6]", "result": "Non-Toxic"},
      {"measurement": "Activity", "setting": "[7]", "result": "Non-Toxic"},
      {"measurement": "Activity", "setting": "[8]", "result": "Non-Toxic"},
      {"measurement": "Activity", "setting": "[9]", "result": "Non-Toxic"},
      {"measurement": "Activity", "setting": "[10]", "result": "Active"},
      {"measurement": "concentration at 96 h", "setting": "[11]", "result": "~2000", "unit": "ng/mL"},
      {"measurement": "half-life", "setting": "[12]", "result": 2, "unit": "h"},
      {"measurement": "CLint scaled at 1 µM", "setting": "[13]", "result": 462, "unit": "mL/min/kg"}
    ]},
    {"smiles": "O=C(/C=C(\\O)C(F)(F)C(F)(F)F)c1cccnc1", "values": [
      {"measurement": "Activity", "setting": "[14]", "result": ">99.7", "unit": "%"},
      {"measurement": "CLint scaled at 1 µM", "setting": "[13]", "result": 3.98, "unit": "mL/min/kg"}
    ]},
    {"smiles": "O=C(/C=C(\\O)C(F)(F)C(F)(F)F)c1ccc(NCc2ccccc2)nc1", "values": [
      {"measurement": "EC50", "setting": "[15]", "result": "< 100", "unit": "nM"}
    ]},
    {"smiles": "FC(F)(F)C(F)(F)c1cc(-c2cccnc2)n[nH]1", "values": [
      {"measurement": "pKa", "setting": "[16]", "result": 10}
    ]},
    {"smiles": "FC(F)(F)C(F)(F)c1nc(-c2cccnc2)n[nH]1", "values": [
      {"measurement": "pKa", "setting": "[16]", "result": 8}
    ]},
    {"smiles": "CC(=O)Nc1ccc(C(=O)/C=C(\\O)C(F)(F)C(F)(F)F)cn1", "values": [
      {"measurement": "EC50", "setting": "[15]", "result": "< 100", "unit": "nM"},
      {"measurement": "Activity", "setting": "[4]", "result": "Non-Toxic"},
      {"measurement": "Activity", "setting": "[5]", "result": "Non-Toxic"},
      {"measurement": "Activity", "setting": "[6]", "result": "Non-Toxic"},
      {"measurement": "Activity", "setting": "[7]", "result": "Non-Toxic"},
      {"measurement": "Activity", "setting": "[8]", "result": "Non-Toxic"},
      {"measurement": "Activity", "setting": "[9]", "result": "Non-Toxic"},
      {"measurement": "CLint scaled at 1 µM", "setting": "[13]", "result": 10.6, "unit": "mL/min/kg"}
    ]}
  ]
}
